From patent US20100203043A1, “TREATMENT AND DIAGNOSIS OF METASTATIC PROSTATE CANCER WITH INHIBITORS OF EPIDERMAL GROWTH FACTOR RECEPTOR (EGFR)” (priority 2007, published 2010)

Test system: LNCaP cells
Assay: Kinase activity profiling (PamChip peptide arrays) of LNCaP cells treated with synthetic androgen analog
Assay type: cell-based, human
Parameters: key to ZAP70_y492/y493 phosphopeptide fold change (log2) relative to LNCaP baseline / RASA_y460 phosphopeptide fold change (log2) relative to LNCaP baseline / RET_y1029 phosphopeptide fold change (log2) relative to LNCaP baseline / IRS2_y919 phosphopeptide fold change (log2) relative to LNCaP baseline / JAK1_y1022/y1023 phosphopeptide fold change (log2) relative to LNCaP baseline / LCK_y394 phosphopeptide fold change (log2) relative to LNCaP baseline / MET_y1230/y1234/y1235 phosphopeptide fold change (log2) relative to LNCaP baseline / PDPK1_y9 phosphopeptide fold change (log2) relative to LNCaP baseline / PDPK1_y373/y376 phosphopeptide fold change (log2) relative to LNCaP baseline / EPHB1_y778 phosphopeptide fold change (log2) relative to LNCaP baseline / ERBB2_y877 phosphopeptide fold change (log2) relative to LNCaP baseline / ERBB2_y1248 phosphopeptide fold change (log2) relative to LNCaP baseline / CDK2_t14/y_5 phosphopeptide fold change (log2) relative to LNCaP baseline / DDRl_y792/y796/y797 phosphopeptide fold change (log2) relative to LNCaP baseline / MAPK10 phosphopeptide fold change (log2) relative to LNCaP baseline / MAPK12_t183/y185 phosphopeptide fold change (log2) relative to LNCaP baseline / PECAM1_y713 phosphopeptide fold change (log2) relative to LNCaP baseline / PRRX2_y214 phosphopeptide fold change (log2) relative to LNCaP baseline / ANXA1_y20/t23 phosphopeptide fold change (log2) relative to LNCaP baseline / CD79A_y182/y188 phosphopeptide fold change (log2) relative to LNCaP baseline / CTTN1_y477/y483 phosphopeptide fold change (log2) relative to LNCaP baseline / CTTN1_y499 phosphopeptide fold change (log2) relative to LNCaP baseline / ENO2_y43 phosphopeptide fold change (log2) relative to LNCaP baseline / EPHA2_y772 phosphopeptide fold change (log2) relative to LNCaP baseline / EPHA7_y608/y614 phosphopeptide fold change (log2) relative to LNCaP baseline / EPOR_y368 phosphopeptide fold change (log2) relative to LNCaP baseline / EPOR_y426 phosphopeptide fold change (log2) relative to LNCaP baseline / FER_y714 phosphopeptide fold change (log2) relative to LNCaP baseline / FES_y713 phosphopeptide fold change (log2) relative to LNCaP baseline / FGFR2_y769 phosphopeptide fold change (log2) relative to LNCaP baseline / FGFR3_y760 phosphopeptide fold change (log2) relative to LNCaP baseline / FRK_y387 phosphopeptide fold change (log2) relative to LNCaP baseline / LAT_y255 phosphopeptide fold change (log2) relative to LNCaP baseline / EGFR_y1110 phosphopeptide fold change (log2) relative to LNCaP baseline / NTRK2_y702/y706/y707 phosphopeptide fold change (log2) relative to LNCaP baseline / PDGFRB_y579/y581 phosphopeptide fold change (log2) relative to LNCaP baseline / PDGFRB_y716 phosphopeptide fold change (log2) relative to LNCaP baseline / PIK3R1_y607/s608 phosphopeptide fold change (log2) relative to LNCaP baseline / PXN_y31 phosphopeptide fold change (log2) relative to LNCaP baseline / PXN_y118 phosphopeptide fold change (log2) relative to LNCaP baseline / TEC_y519 phosphopeptide fold change (log2) relative to LNCaP baseline / MST1R_y1353 phosphopeptide fold change (log2) relative to LNCaP baseline / MST1R_y1356/y1360 phosphopeptide fold change (log2) relative to LNCaP baseline / FAK_y576/y577 phosphopeptide fold change (log2) relative to LNCaP baseline / FAK2_y579/y580 phosphopeptide fold change (log2) relative to LNCaP baseline / LAT_y200 phosphopeptide fold change (log2) relative to LNCaP baseline: —: ‘-’ denotes that the change in peptide phosphorylation level was not found to be significant
Conditions: ‘androgenic’: LNCaP cells, 100 nM R1881, 48 h
Procedure: Cell culture conditions. The LNCaP and OHS cell lines were routinely held in RPMI 1640 medium supplemented with 10% fetal bovine serum (FBS) and 2.0 mM glutamine, defined as growth medium. Different ratios of LNCaP cells to OHS cells had been tested in a series of cocultures to find the optimal culturing conditions [Bratland et al., 2003]. Seventy-two hours before start of experimental incubations, LNCaP and OHS cells were seeded in a 10:1 ratio in RPMI containing 2% charcoal-treated FBS and glutamine. After 48 h, this medium was changed to RPMI containing 0.5% charcoal-treated FBS and glutamine, defined as experimental medium, for another 24 h before experimental incubations were started (at time 0). Monocultures of LNCaP cells were identically incubated prior to experimental incubations.
Monocultures of LNCaP, as well as LNCaP/OHS cocultures, were seeded in a total number of 1.0×10^6 cells in 75 cm2 cell flasks and invariably held in 10 ml medium throughout different incubations. At time 0 (start of the experimental incubations), monocultured LNCaP cells were refed with experimental medium supplemented with 100 nM R1881 (methyltrienolone; Life Science Products), a synthetic androgen analog, or with medium conditioned by OHS cells. The conditioned medium had been collected from OHS monocultures that had been seeded in a 10-fold higher number per volume medium compared to the corresponding cell number of the LNCaP/OHS cocultures, and grown for 48 h (relative to time 0) in experimental medium. This medium was subsequently diluted 1:10 in either fresh experimental medium or in medium obtained from standard LNCaP monocultures after 48 h of incubation (relative to time 0) in experimental medium, before the application onto monocultured LNCaP cells.
To be able to analyze LNCaP signaling pathways activated by direct contact with OHS cells, LNCaP cells were isolated from cocultures by immunomagnetic selection [Forus et al., 1999, Fodstad et al., 2001, Bruland et al., 2005, Tveito et al., 2007]. This rapid and simple procedure enables specific selection of target cells for further analytical applications. Subsequent multiplex profiling of kinase activity was performed using flow-through, porous microarrays with peptide substrates (PamChip® peptide arrays; PamGene International B.V., www.pamgene.com), a novel platform that allows rapid, real-time measurements of phosphopeptide signatures generated by the biological samples.
Androgens are critical regulators of prostate carcinoma progression. Most patients respond to androgen ablation therapy, but only temporarily, also at bone metastasis sites. Until recently, the regulatory program mediated by the androgen receptor in prostate cancer has been elusive [Dehm & Tindall, 2006]. To simulate the complex processes involved in aberrant activation of the androgen signaling axis upon disease progression of prostate cancer [Feldman & Feldman, 2001, Attard et al., 2006], our experimental setting included LNCaP cells treated with a synthetic androgen analog (R1881, 100 nM) to observe whether androgen receptor-mediated signaling pathways might be different from those activated by OHS-directed influence.
The LNCaP samples were given denotations in accordance with their biological context: ‘direct’ (cells from LNCaP/OHS cocultures), ‘paracrine 1’ (cells treated with OHS-conditioned medium mixed with fresh medium), ‘paracrine 2’ (cells treated with OHS-conditioned medium mixed with medium conditioned by LNCaP cells), and ‘androgenic’ (cells treated with the synthetic androgen analog), in addition to baseline (untreated reference cells).
To identify regulatory mechanisms underlying the affinity of prostate cancer to bone, the substrate phosphorylation state generated by each LNCaP entity (‘direct’, ‘paracrine’, ‘androgenic’) was calculated with respect to baseline. […]

C[C@]1(O)CC[C@H]2[C@@H]3CCC4=CC(=O)CCC4=C3C=C[C@@]21C [R1881, methyltrienolone]
1.36 fold change (log2): PFKFB1_s33 phosphopeptide fold change (log2) relative to LNCaP baseline
1.57 fold change (log2): CHRNB1_y390 phosphopeptide fold change (log2) relative to LNCaP baseline
2.94 fold change (log2): PTPN11_y542 phosphopeptide fold change (log2) relative to LNCaP baseline
1.20 fold change (log2): LTK_y772/y776/y777 phosphopeptide fold change (log2) relative to LNCaP baseline | SYN1_s9 phosphopeptide fold change (log2) relative to LNCaP baseline
3.07 fold change (log2): RB1_s807/s811 phosphopeptide fold change (log2) relative to LNCaP baseline
1.47 fold change (log2): CREBl_y134/s133 phosphopeptide fold change (log2) relative to LNCaP baseline
1.15 fold change (log2): GSK3B_y216 phosphopeptide fold change (log2) relative to LNCaP baseline
3.31 fold change (log2): ERBB4_y1284 phosphopeptide fold change (log2) relative to LNCaP baseline
—: ANXA1_y20/t23 phosphopeptide fold change (log2) relative to LNCaP baseline | CD79A_y182/y188 phosphopeptide fold change (log2) relative to LNCaP baseline | CDK2_t14/y_5 phosphopeptide fold change (log2) relative to LNCaP baseline | CTTN1_y477/y483 phosphopeptide fold change (log2) relative to LNCaP baseline | CTTN1_y499 phosphopeptide fold change (log2) relative to LNCaP baseline | DDRl_y792/y796/y797 phosphopeptide fold change (log2) relative to LNCaP baseline | EGFR_y1110 phosphopeptide fold change (log2) relative to LNCaP baseline | ENO2_y43 phosphopeptide fold change (log2) relative to LNCaP baseline | EPHA2_y772 phosphopeptide fold change (log2) relative to LNCaP baseline | EPHA7_y608/y614 phosphopeptide fold change (log2) relative to LNCaP baseline | EPHB1_y778 phosphopeptide fold change (log2) relative to LNCaP baseline | EPOR_y368 phosphopeptide fold change (log2) relative to LNCaP baseline | EPOR_y426 phosphopeptide fold change (log2) relative to LNCaP baseline | ERBB2_y877 phosphopeptide fold change (log2) relative to LNCaP baseline | ERBB2_y1248 phosphopeptide fold change (log2) relative to LNCaP baseline | FAK2_y579/y580 phosphopeptide fold change (log2) relative to LNCaP baseline | FAK_y576/y577 phosphopeptide fold change (log2) relative to LNCaP baseline | FER_y714 phosphopeptide fold change (log2) relative to LNCaP baseline | FES_y713 phosphopeptide fold change (log2) relative to LNCaP baseline | FGFR2_y769 phosphopeptide fold change (log2) relative to LNCaP baseline | FGFR3_y760 phosphopeptide fold change (log2) relative to LNCaP baseline | FRK_y387 phosphopeptide fold change (log2) relative to LNCaP baseline | IRS2_y919 phosphopeptide fold change (log2) relative to LNCaP baseline | JAK1_y1022/y1023 phosphopeptide fold change (log2) relative to LNCaP baseline | LAT_y200 phosphopeptide fold change (log2) relative to LNCaP baseline | LAT_y255 phosphopeptide fold change (log2) relative to LNCaP baseline | LCK_y394 phosphopeptide fold change (log2) relative to LNCaP baseline | MAPK10 phosphopeptide fold change (log2) relative to LNCaP baseline | MAPK12_t183/y185 phosphopeptide fold change (log2) relative to LNCaP baseline | MET_y1230/y1234/y1235 phosphopeptide fold change (log2) relative to LNCaP baseline | MST1R_y1353 phosphopeptide fold change (log2) relative to LNCaP baseline | MST1R_y1356/y1360 phosphopeptide fold change (log2) relative to LNCaP baseline | NTRK2_y702/y706/y707 phosphopeptide fold change (log2) relative to LNCaP baseline | PDGFRB_y579/y581 phosphopeptide fold change (log2) relative to LNCaP baseline | PDGFRB_y716 phosphopeptide fold change (log2) relative to LNCaP baseline | PDPK1_y9 phosphopeptide fold change (log2) relative to LNCaP baseline | PDPK1_y373/y376 phosphopeptide fold change (log2) relative to LNCaP baseline | PECAM1_y713 phosphopeptide fold change (log2) relative to LNCaP baseline | PIK3R1_y607/s608 phosphopeptide fold change (log2) relative to LNCaP baseline | PRRX2_y214 phosphopeptide fold change (log2) relative to LNCaP baseline | PXN_y31 phosphopeptide fold change (log2) relative to LNCaP baseline | PXN_y118 phosphopeptide fold change (log2) relative to LNCaP baseline | RASA_y460 phosphopeptide fold change (log2) relative to LNCaP baseline | RET_y1029 phosphopeptide fold change (log2) relative to LNCaP baseline | TEC_y519 phosphopeptide fold change (log2) relative to LNCaP baseline | ZAP70_y492/y493 phosphopeptide fold change (log2) relative to LNCaP baseline
1.14 fold change (log2): RAF1_s337/s338/y339/y340 phosphopeptide fold change (log2) relative to LNCaP baseline
1.94 fold change (log2): EGFR_y1197 phosphopeptide fold change (log2) relative to LNCaP baseline
